Measurements taken from patent US5695761A, “Suppression of nitric oxide production by osteopontin” (Rutgers University, priority 1993, dated 1997).
Read-outs that look alike come from different tables or passages of the source.

Experiments:
[1] = test system: mouse primary kidney PTE cells; assay: Nitrite production over 3 days in PTE cells treated with angiotensin II; assay type: cell-based; settings: for nitrite production: agent alone, 3 days incubation; for effect on A II-induced nitrite production: 3 days incubation with A II
Protocol: FIG. 7. Angiotensin II enhances nitrite production by a process that can be reversed by OPN in PTE cells. Primary mouse kidney proximal tubule epithelial cells were grown as described in the Examples, infra. Cell were cultured and the medium collected after three days of growth in medium with the indicated supplements.
Preparation of Cells. CD-1 mice aged 4-6 weeks were obtained from Laboratory Animal Services of Nelson Biological Laboratory, Rutgers University, New Jersey. Primary mouse kidney proximal tubule epithelial (PTE) cells were prepared as previously described in Example 1. For NO measurement, cells were subcultured into 24-well tissue culture plates (Linbro, Hamden, Conn.) at 5×10^4 cells per well and incubated overnight for cell attachment. After removal of the medium, the cells were washed twice with Dulbecco's phosphate buffered saline (0.2 g/l KCl, 0.2 g/l KH2 PO4, 8 g/l NaCl, 1.15 g/l Na2 HPO4) and re-fed phenol red-free RPMI 1640 medium (Gibco) containing 10 μg/ml tetrahydrobiopterin (ICN Biochemicals, Cleveland Ohio).
Measurement of NO Production. Synthesis of NO in the medium over a 3-day period was determined by the accumulation of nitrite, a stable oxidized product of NO (Marletta, 1988, Chem. Res. Toxicol. 1:249-257). Nitrite was measured with the Griess reagents using sodium nitrite as standard, as described in Example 1.

primary mouse PTE cells = assay: Intracellular calcium mobilization (Indo-1 AM) in PTE cells; assay type: cell-based
Protocol: FIGS. 9A-D. Induction of calcium mobilization by ionomycin, angiotensin II and osteopontin in PTE cells. Cells were incubated with 1 μM Indo-1 AM [1-(2-amino-5-(6-carboxyindol-2-yl)phenoxy)-2-(2'-amino-5'-methylphenoxy)ethane-N,N,N',N'-tetraacetic acid) and analyzed on a Meridian 570 Anchored Cell Analysis System (ACAS) equipped with an Innova 90 5-W laser adjusted to an output of 100 mW. Calcium mobilization was quantified by scanning single 150×150 μm fields containing about 10 cells every 30 s for a total of 10 min and quantifying the emission at 500 nm (calcium-free Indo-1) and 400 nm (calcium-bound Indo-1). After 1 min, the cells were stimulated with (A) control, (B) 10 μM ionomycin, (C) […] angiotensin II, and (D) 2 nM or 0.1 nM OPN.
Measurement of intracellular calcium mobilization. Primary mouse PTE cells were subcultured onto collagen-coated Nunc coverglass chambers (Nunc, Inc., Naperville, Ill.). Intracellular calcium mobilization was monitored using a fluorescent, calcium-sensitive indicator Indo-1-acetoxymethyl ester (Indo-1 AM) (Molecular Probes, Eugene, Oreg.) and qualified on a Meridian 570 Anchored Cell Analysis (ACAS) equipped with an Innova 90-5W laser adjusted to an output of 100 mW. Cells were washed with HBSS containing 0.3% bovine serum albumin (BSA) and incubated with 1 μM Indo-1 AM at 37° C. for 30 min. Then, the cells were washed 3 times and 1 ml of HBSS containing 0.3% BSA was added. The calcium ratio was determined by scanning single 150×150 μm field containing about 10 cells every 30 sec for a total of 10 min and recording the emission at 500 nm (calcium-free Indo-1) and 400 nm (calcium-saturated Indo-1). Intracellular calcium concentrations were determined by generating a standard curve using a known calcium solution (Gardner et al., 1993, J. Leukocyte Biol. 53:190-196). All data were analyzed with Meridian ACAS statistical software.

[2] = test system: constitutive nitric oxide synthase (cNOS) mRNA; assay: Northern blot analysis of cNOS mRNA in PTE cells; assay type: cell-based, mouse; settings: 12 h
Protocol: FIGS. 8A and 8B. Norther blot analysis of constitutive nitric oxide synthase (cNOS) mRNA expression. (A) Autoradiogram of RNA separated by agarose-formaldehyde gel electrophoresis, transfered to nylon membranes, and probed with ^32 P-labelled oligonucleotide probes as described in Example 2, infra. (B) Reltive intensities of cNOS to 18S rRNA quantified by densitometry. Cells were treated with buffer, angiotensin (1 μM), angiotensin with osteopontin (0.1 and 0.001 nM), or ionomycin, as indicated in B. The blots in (A) correspond to the bars in (B).
Northern Blot Analysis. Total RNA was isolated using TRI reagent (Molecular Research Center, Cincinnati, Ohio) after 12 h stimulation in the medium (see Example 1). Rat brain constitutive nitric oxide synthase (cNOS) cDNA was obtained as described (Bredt et al., 1991, Nature 351:714-718). Five μg of total RNA was separated on an agarose-formaldehyde gel, transferred onto a nylon membrane (GeneScreen Plus, NEN Research Products, Du Pont, Boston, Mass.) and hybridized with a ^32 P-labeled cNOS cDNA probe. The blot was washed 3 times with 0.5×SSC, 0.1% SDS at 65° C. and autoradiographed for 1 to 3 days. The membrane was stripped and successively hybridized to a mouse 18S rRNA probe. The relative intensities of cNOS to 18S rRNA in the resulting autoradiograms were quantified by densitometry (Pharmacia LKB, UltraScan XL).

[3] = test system: primary mouse kidney proximal tubule epithelial cells; assay: Nitrite accumulation (Griess reagent) in PTE cells stimulated with LPS and γ-IFN; assay type: cell-based; settings: for effect on LPS and γ-IFN-induced nitrite (NO) production: agent alone on stimulated cells, nitrite at 24 h; for nitrite production relative to the LPS and γ-IFN-stimulated cells: measured at 24 h
Protocol: Cell culture. […] Clin. Invest. 91:2138-43). Briefly, slices of cortex from decapsulated kidneys were washed in unsupplemented RPMI 1640 and cut int 1-2 mm^3 pieces, which were then incubated for 20 min. at 37° C. in Krebs-Henseleit buffer (Sigma Chemical Co., St. Louis, Mo.) supplemented with 10 mM HEPES (pH 7.5), 1 g/l D-glucose, 200 mg/1 sodium pyruvate, 0.125 mg/ml collagenase (Type 1A, Sigma), and 0.6 U/ml dispase (Boehringer Mannheim Biochemica, Indianapolis, Ind.). The digested cortex was centrifuged at 70×g for 3 min and the cells resuspended in RPMI 1640 supplemented with 10 mM HEPES (pH 7.5), 5 μg/ml human transferrin, 50 nM dexamethasone, 5 μg/ml insulin (Gibco, Gaithersberg, Md.), 3% fetal bovine serum, 100 U/ml penicillin and 100 μg/ml streptomycin. For NO measurements, cells were subcultured into 24-well culture plates (Linbro, Hamden, Conn.) at 5×10^4 cells/16-mm well and incubated overnight. After removal of the medium, the cells were washed 3 times with Dulbecco's phosphate buffered saline (Sigma D5652), and re-fed with phenol red-free RPMI 1640 medium containing 2 mM […] and 10 μg/ml tetrahydrobiopterin (ICN Biochemicals, Cleveland, Ohio) in the presence or absence of 100 ng/ml lipopolysaccharide (LPS) (Sigma) and 100 U/ml recombinant mouse γ-interferon (γ-IFN). Measurement of NO (as NO2^-) production. Nitric oxide is a short-lived reactive nitrogen intermediate that in aqueous solution in the absence of oxyhemoproteins or superoxide, is oxidized primarily to nitrite (Ignarro et al., 1993, Proc. Natl. Acad. Sci. U.S.A. 90:8103-07). Under such conditions NO production can be assessed by the accumulation of nitrite in the medium. […] Biochem. 126:131-138).

rabbit kidney PTE cells = settings: primary cultures of rabbit kidney PTE cells; Norman et al. 1987; cited from earlier work
osteoclasts = settings: Zimolo et al. 1993; cited from earlier work
[4] = test system: inducible nitric oxide synthase (iNOS) mRNA; assay: Northern blot analysis of iNOS mRNA in stimulated PTE cells; assay type: cell-based, mouse; settings: measured at 8 h, subconfluent PTE cells
Protocol: FIGS. 3A and 3B. Inhibition of inducible NO-synthase (iNOS) gene induction by OPN. A) Northern blot analysis of iNOS mRNA and 18s rRNA levels in primary mouse kidney epithelial cells 8 h after treatment. B) Accumulation of nitrite in the medium 24 h after treatment. Values are the mean±standard error from three separate plates. Lane 1: control; lanes 2, 4 and 5: stimulated with 100 ng/ml LPS plus 100 U/ml γIFN; lanes 3 and 4: treated with 1 pM OPN; lanes 5 and 6: treated with 100 pM OPN.
Northern blot analysis. Total RNA was isolated using the TRI reagent (Molecular Research Center, Cincinnati, Ohio). The RNA (5 μg) was fractionated on formaldehyde-agarose gels, blotted and probed using standard procedures (Sambrook et al., 1989, supra). The mouse cDNA corresponding to the macrophage inducible nitric oxide synthase gene (iNOS) has been described (Lyons, 1992, J. Biol. Chem. 267:6370-74).

iNOS protein = assay: Immunofluorescence analysis of iNOS protein in PTE cells; assay type: cell-based, mouse; settings: 100 pM OPN, LPS 100 ng/ml and γIFN 100 U/ml, 48 h
Protocol: FIGS. 4A-D. OPN-induced suppression of iNOS protein in PTE cells. Cells were fixed and permeabilized by incubation of 30 min with 0.4 mM lysophosphatidylcholine in 1% buffered formalin. After washing three times with phosphate-buffered saline, cells were blocked with 0.1% bovine serum albumin in phosphate-buffered saline and then incubated for 4 h first with a 1:10,000 dilution of rabbit peptide antibody to the C-terminal 10 amino acids of iNOS. After washing, the cells were incubated with FITC-conjugated goat-anti rabbit secondary antibody (Cappel, West Chester, Pa.). After an additional 30 min, the cells were washed and analyzed for fluorescence intensity using a Meridian ACAS anchored cell analysis system. A) Upper left, untreated control cells; B) upper right, cells treated for 48 h with LPS (100 ng/ml) and γIFN (100 U/ml); C) lower left, cells treated for 48 h with OPN (100 pM); D) lower right, cells treated for 48 h with LPS, γIFN and OPN. The color bar represents relative fluorescence intensity on the four-decade log scale with white being the most intense.

In the case of `C[C@H](CCC(=O)O)C[C@H](C)C[C@H](C)C(=O)/C=C(\O)[C@H](C)C[C@H](C)C/C=C/[C@@H](C)[C@@H](O)[C@@H](C)[C@@H](O)C[C@@H]1CC[C@@](C)([C@H]2CC[C@@](C)([C@@H](C)O)O2)O1` [Ionomycin], the nitrite production [1] is reported as “increased nitrite production”, the calcium mobilization (primary mouse PTE cells; 10 μM ionomycin) is reported as “an increase in cytosolic free calcium” and the “cNOS mRNA abundance” value ([2]; agent alone) is reported as “greatly increase”.
With `CNC(=N)NCCC[C@H](N)C(=O)O` [L-NMA, N^G -methyl-L-arginine, reference compound] the “effect on A II-induced nitrite production” value [1] was “inhibited the nitrite production induced by A II” and the “effect on LPS and γ-IFN-induced nitrite (NO) production” value [3] was “Inhibition of nitrite accumulation”.
In the case of “A II: angiotensin (the x-mer peptide produced from angiotensinogen), obtained from Sigma (DRVYIHPF; Angiotensin-2; UniProt P01019 25-32, looked up)”, the nitrite production [1] is given as “dose-dependent increase in nitrite accumulation”, the concentration necessary to induce a transient rise in cytosolic free calcium (rabbit kidney PTE cells) is given as 5 µM and the calcium mobilization (primary mouse PTE cells) is given as “a fast and transient rise in cytosolic free calcium levels”. For the same molecule, the calcium mobilization (primary mouse PTE cells; 1 μM, within 10 min) was “only a delayed and small transient response in calcium mobilization” and the “enhancement of cNOS mRNA” value ([2]; angiotensin 1 μM, densitometry relative to rRNA) was 3.5 fold.
With Ac-PTVDVPDGRGDSLAYGLRSK-NH2 [OPP] the “effect on LPS and γ-IFN-induced nitrite (NO) production” value [3] was “effective at reducing LPS and γ-IFN-induced NO production”.
In the case of “OPN (purified from urine): OPN purified from urine, used by Zimolo et al. (cited)”, the “concentration raising intracellular free Ca++ level” value (osteoclasts) is listed as 1 pM.
In the case of “OPN: Recombinant human osteopontin, secreted 44 kDa RGD-containing phosphoprotein, purified from transfected MH2 human embryonic kidney cells”, the “effect on A II-induced nitrite production” value [1] is reported as “almost completely blocked”, the “concentration dependence of calcium reduction” value (primary mouse PTE cells; 2 nM compared with 0.1 nM OPN) is reported as “the smaller concentration of OPN was more potent in reducing calcium levels” and the calcium mobilization (primary mouse PTE cells; 2 nM or 0.1 nM OPN) is reported as “a reduction in the cytosolic free calcium”. For the same molecule, the “level of the 4 kb mRNA species (iNOS mRNA), normalized to 18 S rRNA” value ([4]; 1 pM OPN added simultaneously with LPS and γ-IFN) was 54%, the “level of the 4 kb mRNA species (iNOS mRNA), normalized to 18 S rRNA” value ([4]; 100 pM OPN added simultaneously with LPS and γ-IFN) was 31% and the “nitrite production relative to the LPS and γ-IFN-stimulated cells” value ([3]; 1 pM OPN added simultaneously with inducers) was 45%. For the same molecule, the “nitrite production relative to the LPS and γ-IFN-stimulated cells” value ([3]; 100 pM OPN added simultaneously with inducers) was 24%, the “time-dependence of inhibition of NO production” value ([3]; OPN 100 pM added 60 min prior to γ-IFN and LPS, nitrite after 24 h) was “more inhibitory than when added simultaneously” and the “effective concentration for suppression of NO production” value ([3]; confluent cells) was “required higher concentrations”. The “effective concentration for suppression of NO production” value ([3]; subconfluent PTE cells) was ~ 10 pM, the “iNOS protein concentration in stimulated cells” value (iNOS protein) was “diminished concentration of iNOS protein” and the “effect on amount of A II-induced cNOS mRNA” value ([2]; OPN 0.1 nM or 1 pM with A II) was “only a modest effect”.
